Experimental data taken from US20240245677A1, “SELECTED COMPOUNDS FOR TARGETED DEGRADATION OF BRD9” (C4 THERAPEUTICS, INC., priority 2021, published 2024).
Where two headings read alike, the source gives them in different places.

Key:
IKZF1 = biological target: T1, IKZF1 (Homo sapiens, UniProt Q13422+Q96SW2); test: IKZF1 HiBiT degradation assay in NCIH929.11 cells; format: cell-based
T1 construct: CRISPR-edited to endogenously express HiBiT tagged IKZF1; host or cells: NCIH929.11

[1] = system: Yamato-SS synovial sarcoma cell line; test: Global proteomics in Yamato-SS cells; format: cell-based, human; details: 100 nM, 4 hours; for Emax at 0.1 µM: Homo sapiens
Protocol: Global protein expression was performed in Yamato-SS and HSSYII synovial sarcoma cell lines after 4-hour treatment with Compound 1 (100 nM). The Yamato-SS cell line was provided by the RIKEN BRC through the National BioResource Project of the MEXT/AMED, Japan (cat #RCB3577), and the HS-SY-II cell line was provided by the RIKEN BRC through the National BioResource Project of the MEXT/AMED, Japan (cat #RCB2231).
Both Yamato-SS and HSSYII cell lines were treated with Compound 1 at 100 nM for 4 hours and analyzed by multiplexed quantitative proteomics. The x-axis illustrates the totality of the proteomics data and is labeled as fold change (FC) of Compound 1 vs vehicle in a Log 2 transformation scale. The statistical significance (T-test of treated vs. DMSO with Benjamini-Hochberg correction applied) of the observed changes is shown in the y-axis as negative Log 10 of the P-value. The horizontal dashed line marks the statistical significance (P-value ≤0.001) and the vertical line marks fold change ≥2.

[2] = Crystallization from hot saturated solutions by fast cooling; format: physicochemical; details: for Comments / XRPD: hot saturated solution
Protocol: Samples with no precipitates were put in −20° C. freezer for crystallization. Precipitates were collected by filtration. The solid part (wet cake) were investigated by XRPD.

[3] = Salt and cocrystal evaluation (equilibration, cooling, slow evaporation, anti-solvent, re-equilibration); format: physicochemical
Protocol: Compound 1 was investigated with a variety of salts to find additional morphic forms and cocrystals. This salt and cocrystal investigation for Compound 1 was performed with free form Pattern A*. This is a hydrate with medium crystallinity. […] Acetone, methanol, ethyl acetate and acetonitrile were used as evaluation solvents. Five crystallization methods, including equilibration, fast cooling, slow evaporation, addition of anti-solvent and re-equilibration, were applied to obtain salt or cocrystal hits. From these investigations only one crystalline form—a urea cocrystal Form P was identified.
Based on the pKa of free form, 14 acids were selected for evaluation in acetone and methanol. About 30 mg of Compound 1 free form and 1 or 2 equivalents of salt forming agents 5 were weighed into 2 mL glass vials. 200 μL of acetone or methanol was added. […] To avoid degradation, experiments with strong acids were conducted without heating. Samples were stirred at 25° C. for 2 days. Obtained suspensions were taken out and centrifuged. Then wet cakes were dried at 25° C. under vacuum for 2 h. Obtained solids were analyzed by XRPD and results were summarized.
To obtain crystalline salts, another two solvents including ethyl acetate and acetonitrile were added as solvents. About 30 mg of Compound 1 free form and 1 or 2 equivalents of salt forming agents were weighed into 2 mL glass vials. 400 μL of ethyl acetate or 300 μL of acetonitrile was added. Samples were stirred at 25° C. for 2 days. Obtained solids were analyzed by XRPD and results were summarized.
Nicotinamide and urea were selected as crystallization agents for cocrystal evaluation. Acetone, methanol, ethyl acetate and acetonitrile were used as solvents. About 30 mg of Compound 1 free form, and 1 equivalent of crystallization agent were weighed into 2 mL glass vials. […] of acetone, 200 μL of methanol, […] of ethyl acetate or 300 µL of acetonitrile was added. Obtained suspensions were stirred at 25° C. for 2 days. Obtained solids were analyzed by XRPD and results were summarized.
Supernatants obtained from equilibration experiments were cooled to 5° C. and stirred at 5° C. for 3 days. Then obtained suspensions were centrifuged at 5° C. and solids were dried under vacuum at 25° C. for 2 h. No crystalline salt was obtained.
No crystalline hits were obtained.
Amorphous salts from above experiments were re-equilibrated at 25° C. for crystallization. No crystalline salt hits were obtained.

T1 sequence (Q13422 whole entry): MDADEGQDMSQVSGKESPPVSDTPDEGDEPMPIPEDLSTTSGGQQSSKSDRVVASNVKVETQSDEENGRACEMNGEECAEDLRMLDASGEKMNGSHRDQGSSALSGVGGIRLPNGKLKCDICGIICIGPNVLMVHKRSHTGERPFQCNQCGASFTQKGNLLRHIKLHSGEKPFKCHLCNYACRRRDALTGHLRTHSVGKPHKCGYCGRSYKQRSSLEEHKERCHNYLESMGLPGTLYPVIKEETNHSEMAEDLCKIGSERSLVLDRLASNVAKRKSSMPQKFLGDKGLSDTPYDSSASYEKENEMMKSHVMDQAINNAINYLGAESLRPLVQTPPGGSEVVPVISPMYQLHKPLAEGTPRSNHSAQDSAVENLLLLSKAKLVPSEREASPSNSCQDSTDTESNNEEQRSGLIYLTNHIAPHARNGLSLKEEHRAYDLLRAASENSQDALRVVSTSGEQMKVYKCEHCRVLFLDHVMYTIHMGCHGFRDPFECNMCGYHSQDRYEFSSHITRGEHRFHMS
T1 sequence (Q96SW2 whole entry): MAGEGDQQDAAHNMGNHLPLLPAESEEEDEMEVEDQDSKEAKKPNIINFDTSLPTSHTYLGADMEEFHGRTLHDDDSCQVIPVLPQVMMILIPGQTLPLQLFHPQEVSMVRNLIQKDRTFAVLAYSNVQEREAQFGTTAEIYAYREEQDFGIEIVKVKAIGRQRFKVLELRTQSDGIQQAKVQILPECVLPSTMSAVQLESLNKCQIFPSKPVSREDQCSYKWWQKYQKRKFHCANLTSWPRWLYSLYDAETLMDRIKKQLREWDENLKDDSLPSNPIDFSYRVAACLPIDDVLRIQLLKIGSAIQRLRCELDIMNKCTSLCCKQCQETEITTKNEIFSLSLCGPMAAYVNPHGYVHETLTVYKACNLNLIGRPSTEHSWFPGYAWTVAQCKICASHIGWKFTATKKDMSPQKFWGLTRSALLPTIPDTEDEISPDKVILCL
T1 sequence (Q16531 2-1140 partner limits assumed): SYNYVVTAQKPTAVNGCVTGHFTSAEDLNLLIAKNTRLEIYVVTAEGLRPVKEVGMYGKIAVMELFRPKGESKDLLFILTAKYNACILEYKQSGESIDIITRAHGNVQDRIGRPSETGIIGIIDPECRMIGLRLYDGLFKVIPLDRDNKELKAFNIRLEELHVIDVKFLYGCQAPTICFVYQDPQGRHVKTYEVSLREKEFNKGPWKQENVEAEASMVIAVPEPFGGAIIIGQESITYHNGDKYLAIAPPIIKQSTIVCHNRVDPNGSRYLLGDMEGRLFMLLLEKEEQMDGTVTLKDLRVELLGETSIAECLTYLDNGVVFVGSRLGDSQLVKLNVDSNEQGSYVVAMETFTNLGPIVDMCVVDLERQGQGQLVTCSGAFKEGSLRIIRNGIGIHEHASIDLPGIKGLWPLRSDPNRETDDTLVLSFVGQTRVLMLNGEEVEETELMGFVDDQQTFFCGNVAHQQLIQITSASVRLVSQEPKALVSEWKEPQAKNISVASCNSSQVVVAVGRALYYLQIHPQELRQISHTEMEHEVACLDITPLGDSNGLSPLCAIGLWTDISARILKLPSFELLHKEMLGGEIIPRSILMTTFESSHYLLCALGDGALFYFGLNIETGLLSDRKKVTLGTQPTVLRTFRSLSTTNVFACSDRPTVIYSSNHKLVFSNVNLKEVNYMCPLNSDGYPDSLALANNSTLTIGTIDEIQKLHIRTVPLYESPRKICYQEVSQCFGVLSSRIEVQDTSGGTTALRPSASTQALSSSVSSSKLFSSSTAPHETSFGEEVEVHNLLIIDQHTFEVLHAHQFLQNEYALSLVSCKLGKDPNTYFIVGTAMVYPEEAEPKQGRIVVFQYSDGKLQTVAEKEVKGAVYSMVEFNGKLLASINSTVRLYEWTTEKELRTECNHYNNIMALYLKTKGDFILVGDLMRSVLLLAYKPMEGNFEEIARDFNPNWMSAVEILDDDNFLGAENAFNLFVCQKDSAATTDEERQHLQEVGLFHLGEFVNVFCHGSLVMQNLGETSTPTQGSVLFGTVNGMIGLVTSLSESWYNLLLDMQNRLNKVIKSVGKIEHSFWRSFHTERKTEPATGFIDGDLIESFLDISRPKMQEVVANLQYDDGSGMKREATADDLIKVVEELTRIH

In the case of `COc1cc(-c2cn(C)c(=O)c(C)c2C)cc(OC)c1CN1CC[C@H](N2CCN(c3ccc(N[C@H]4CCC(=O)NC4=O)cc3F)CC2)C(F)(F)C1` [Compound 1, (S)-3-((4-(4-((S)-1-(2,6-dimethoxy-4-(1,4,5-trimethyl-6-oxo-1,6-dihydropyridin-3-yl)benzyl)-3,3-difluoropiperidin-4-yl)piperazin-1-yl)-3-fluorophenyl)amino)-piperidine-2,6-dione], the “% IKZF1 Remaining Relative to Vehicle Control at 6 hr, Mean” value (IKZF1; 0.101 nM) is reported as 100.8%, the “% IKZF1 Remaining Relative to Vehicle Control at 6 hr, Mean” value (IKZF1; 0.318 nM) is reported as 106.4% and the “% IKZF1 Remaining Relative to Vehicle Control at 6 hr, Mean” value (IKZF1; 1.01 nM) is reported as 102.9%. The “% IKZF1 Remaining Relative to Vehicle Control at 6 hr, Mean” value (IKZF1; 3.17 nM) was 100.4%, the “% IKZF1 Remaining Relative to Vehicle Control at 6 hr, Mean” value (IKZF1; 10.0 nM) was 98.5% and the “% IKZF1 Remaining Relative to Vehicle Control at 6 hr, Mean” value (IKZF1; 31.7 nM) was 96.0%. The “% IKZF1 Remaining Relative to Vehicle Control at 6 hr, Mean” value (IKZF1; 100 nM) was 95.9%, the “% IKZF1 Remaining Relative to Vehicle Control at 6 hr, Mean” value (IKZF1; 317 nM) was 91.5% and the “% IKZF1 Remaining Relative to Vehicle Control at 6 hr, Mean” value (IKZF1; 1000 nM) was 93.3%. For the same compound, the “% IKZF1 Remaining Relative to Vehicle Control at 6 hr, Mean” value (IKZF1; 3161 nM) was 80.8%, the “% IKZF1 Remaining Relative to Vehicle Control at 6 hr, Mean” value (IKZF1; 9990 nM) was 74.2% and the “degradation of IKZF1” value (IKZF1; 10 μM, 6 hours) was 25%. The Emax (IKZF1; IKZF1-HiBiT, NCIH929.11 cells, 6 hours, read-out: Mean Emax (%) ± SD) was 74.2 ± 8.2%, the “effect on degradation of IKZF1” value (IKZF1; concentrations up to 1 μM, 6 hours) was “no significant effect” and the “ADAMST1 protein level decrease vs DMSO control” value [1] was 66.3%. For the same compound, the “BRD9 protein level decrease vs DMSO control” value [1] was 66.5%, the Emax at 0.1 µM ([1]; read-out: ADAMST1 Emax) was 33.7% and the Emax at 0.1 µM ([1]; read-out: BRD9 Emax) was 33.5%. For the same compound, the “Comments: form after seeding” value ([2]; 2-MeTHF, add Pattern G as seeds, slurry for 5 days) was “Pattern G”, the Comments ([2]; 2-MeTHF) was “Clear solution” and the XRPD ([2]; Acetone) was “Pattern B”. For the same compound, the XRPD ([2]; Ethanol) was “Pattern F”, the XRPD ([2]; Ethyl acetate) was “Pattern F” and the Comments ([2]; Methanol) was “Clear solution”. The “Results (re-equilibration for 8 days) Acetone” value ([3]; 1.05 equiv. Sulfuric acid, Acetone, +200 μL EA) was “Free form Pattern B*”, the “Results (re-equilibration for 8 days) Acetone” value ([3]; 2.10 equiv. Hydrochloric acid, Acetone, +100 μL ACN) was “+100 μL ACN, Gel-like sample” and the “Results (re-equilibration for 8 days) Acetone” value ([3]; 2.10 equiv. Methanesulfonic acid, Acetone, +200 μL EA) was “+200 μL EA, Gel-like sample”. The “Results (anti-solvent addition) A Acetone” value ([3]; 2.10 equiv. Trifluoroacetic acid, Acetone, +400 μL MTBE) was “Clear solution”, the “Results (anti-solvent addition) C EA, XRPD” value ([3]; 2.10 equiv. Trifluoroacetic acid, EA, +200 μL MTBE, suspension, AF = Amorphous form) was “XRPD: AF*” and the “Results (cooling) A Acetone” value ([3]; cooled to 5° C., 3 days, 1.05 equiv. Fumaric acid, Acetone) was “Clear Solution”. The “Results (cooling) A Acetone” value ([3]; cooled to 5° C., 3 days, 1.05 equiv. Sulfuric acid, Acetone) was “Clear Solution”, the “Results (cooling) B MeOH” value ([3]; cooled to 5° C., 3 days, 1.05 equiv. Sulfuric acid) was “Clear Solution” and the “Results (cooling) B MeOH” value ([3]; cooled to 5° C., 3 days, 2.10 equiv. Citric acid) was “Clear Solution”. For the same compound, the “Results (cooling) A Acetone” value ([3]; cooled to 5° C., 3 days, 2.10 equiv. Fumaric acid, Acetone) was “Clear Solution”, the “Results (cooling) A Acetone” value ([3]; cooled to 5° C., 3 days, 2.10 equiv. Hydrochloric acid, Acetone) was “Clear Solution” and the “Results (cooling) B MeOH” value ([3]; cooled to 5° C., 3 days, 2.10 equiv. Hydrochloric acid) was “Clear Solution”. The “Results (cooling) A Acetone” value ([3]; cooled to 5° C., 3 days, 2.10 equiv. L-Malic acid, Acetone) was “Clear Solution”, the “Results (cooling) B MeOH” value ([3]; cooled to 5° C., 3 days, 2.10 equiv. Maleic acid) was “Clear Solution” and the “Results (cooling) B MeOH” value ([3]; cooled to 5° C., 3 days, 2.10 equiv. Methanesulfonic acid) was “Clear Solution”. The “Results (cooling) A Acetone” value ([3]; cooled to 5° C., 3 days, 2.10 equiv. Succinic acid, Acetone) was “Clear Solution”, the “Results (cooling) A Acetone” value ([3]; cooled to 5° C., 3 days, 2.10 equiv. Sulfuric acid, Acetone) was “Clear Solution” and the “Results (cooling) B MeOH” value ([3]; cooled to 5° C., 3 days, 2.10 equiv. Sulfuric acid) was “Clear Solution”. For the same compound, the “Results (cooling) D ACN” value ([3]; cooled to 5° C., 3 days, 2.10 equiv. Trifluoroacetic acid, ACN) was “Clear Solution”, the “Results (cooling) A Acetone” value ([3]; cooled to 5° C., 3 days, 2.10 equiv. Trifluoroacetic acid, Acetone) was “Clear Solution” and the “Results (cooling) C EA” value ([3]; cooled to 5° C., 3 days, 2.10 equiv. Trifluoroacetic acid, EA) was “Clear Solution”. The “Results (cooling) B MeOH” value ([3]; cooled to 5° C., 3 days, 2.10 equiv. Trifluoroacetic acid) was “Clear Solution”, the “Results (cooling) B MeOH” value ([3]; cooled to 5° C., 3 days, 2.10 equiv. p-Toluenesulfonic acid) was “Clear Solution” and the “Results A Acetone” value ([3]; equilibration, 1.05 equiv. Fumaric acid, Acetone) was “Clear solution”. For the same compound, the “Results A Acetone” value ([3]; equilibration, 1.05 equiv. Nicotinamide, Acetone) was “Clear solution”, the “Results A Acetone” value ([3]; equilibration, 1.05 equiv. Urea, Acetone) was “Clear solution” and the “Results A Acetone” value ([3]; equilibration, 2.10 equiv. Adipic acid, Acetone) was “Clear solution”. For the same compound, the “Results A Acetone” value ([3]; equilibration, 2.10 equiv. Fumaric acid, Acetone) was “Clear solution”, the “Results A Acetone” value ([3]; equilibration, 2.10 equiv. L-Malic acid, Acetone) was “Clear solution” and the “Results C EA” value ([3]; equilibration, 2.10 equiv. Methanesulfonic acid, EA, AF = Amorphous form) was “AF MSA salt*”. For the same compound, the “Results A Acetone” value ([3]; equilibration, 2.10 equiv. Succinic acid, Acetone) was “Clear solution”, the “Results D ACN” value ([3]; equilibration, 2.10 equiv. Trifluoroacetic acid, ACN) was “Clear solution” and the “Results A Acetone” value ([3]; equilibration, 2.10 equiv. Trifluoroacetic acid, Acetone) was “Clear solution”. For the same compound, the “Results C EA” value ([3]; equilibration, 2.10 equiv. Trifluoroacetic acid, EA) was “Clear solution”.
